# Laboratory results from US20180110824A1, “Macrocyclic Modulators of the Ghrelin Receptor” (Ocera Therapeutics, Inc., priority 2016, published 2018).
# Like-named read-outs stand apart in the source and are kept apart here.
# Assays:
# [1] = tested on: pulsatile GH release in rat; assay: Growth hormone response to test compounds in conscious, freely-moving rats; format: in vivo
# Procedure: The following method is employed to determine the temporal pattern and magnitude of the growth hormone (GH) response to test compounds, administered either systemically or centrally. […] Further results are presented in the Examples below.
# Adult male Sprague Dawley rats (225-300 g) were purchased from Charles River Canada (St. Constant, Canada) and individually housed on a 12-h light, 12-h dark cycle (lights on, time: 0600-1800) in a temperature (22±1° C.) and humidity-controlled room. Purina rat chow (Ralston Purina Co., St Louis, Mo.) and tap water were freely available. For these studies, chronic intracerebroventricular (icv) and intracardiac venous cannulas were implanted under sodium pentobarbital (50 mg/kg, ip) anesthesia using known techniques. The placement of the icv cannula was verified by both a positive drinking response to icv carbachol (100 ng/10 μl) injection on the day after surgery and methylene blue dye at the time of sacrifice. After surgery, the rats were placed directly in isolation test chambers with food and water freely available until body weight returned to preoperative levels (usually within 5-7 d). During this time, the rats were handled daily to minimize any stress associated with handling on the day of the experiment. On the test day, food was removed 1.5 h before the start of sampling and was returned at the end. Free moving rats were iv injected with either test sample at various levels (3, 30, 300, 1000 μg/kg) or normal saline at two different time points during a 6-h sampling period. The times 1100 and 1300 were chosen because they reflect typical peak and trough periods of GH secretion, as previously documented. The human ghrelin peptide, (5 μg, Phoenix Pharmaceuticals, Inc., Belmont, Calif.) was used as a positive control in the experiments and was diluted in normal saline just before use. To assess the central actions of test compounds on pulsatile GH release, a 10-fold lower dose of the test sample or normal saline, was administered icv at the same time points, 1100 and 1300. Blood samples (0.35 mL) were withdrawn every 15 min over the 6-h sampling period (time: 1000-1600) from all animals. To document the rapidity of the GH response to the test compound, an additional blood sample was obtained 5 min after each injection. […]
# Plasma GH concentrations were measured in duplicate by double antibody RIA using materials supplied by the NIDDK Hormone Distribution Program (Bethesda, Md.), The averaged plasma GH values for 5-6 rats per group are reported in terms of the rat GH reference preparation. […]
# • 1. […] Blood samples are drawn at defined, 15-minute intervals throughout the test day and growth hormone (GH) measured directly by radioimmunoassay. • 6. […]
# [2] = tested on: morphine-delayed gastric emptying and gastrointestinal transit in rats; assay: Opioid (morphine)-delayed gastric emptying and gastrointestinal transit in rats; format: in vivo, rat; conditions: i.v., after morphine 3 mg/kg s.c., FIG. 16B
# From the text: Opioid analgesics, such as morphine, are well known to delay gastrointestinal transit which is an important side-effect for this class of drugs. The clinical term for this syndrome is opioid bowel dysfunction (OBD). Importantly, patients recovering from abdominal surgery experience post-operative ileus that is further exacerbated by concomitant opioid therapy for post-surgical pain.
# • 1. Rats (male, Sprague-Dawley, 250-300 g) are implanted with jugular vein catheters to accommodate dosing of test articles. • 2. Overnight-fasted rats are administered morphine (3 mg/kg s.c.). • 3. […] Radioactivity (^99mTc) in each tissue isolate is measured as a means of measuring the transit of the meal.
# [3] = biological target: T1, human growth hormone secretagogue receptor (hGHS-R1a) (Homo sapiens, UniProt Q92847); assay: Competitive radioligand binding assay (ghrelin receptor), [125I]-ghrelin displacement on GHS-R/HEK 293 membranes; conditions: for Ki: read-out: Ki
# T1 construct: purchased PerkinElmer BioSignal #RBHGHSM; host or cells: HEK-293, stably transfected
# T1 sequence (Q92847 whole entry): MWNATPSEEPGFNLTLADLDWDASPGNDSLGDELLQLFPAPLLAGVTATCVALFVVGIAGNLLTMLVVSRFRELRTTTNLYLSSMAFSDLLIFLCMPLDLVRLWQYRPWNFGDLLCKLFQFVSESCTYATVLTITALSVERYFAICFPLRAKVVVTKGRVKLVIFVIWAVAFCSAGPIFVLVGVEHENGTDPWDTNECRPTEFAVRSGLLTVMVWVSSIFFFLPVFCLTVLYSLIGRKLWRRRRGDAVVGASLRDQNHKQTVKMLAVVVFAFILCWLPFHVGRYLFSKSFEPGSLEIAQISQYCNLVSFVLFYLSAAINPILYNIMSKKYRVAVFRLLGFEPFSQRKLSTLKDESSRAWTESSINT
smiles,measurement,setting,value
CC1C(=O)NC(Cc2ccc(F)cc2)C(=O)NCCCc2ccccc2O[C@H](C)CNC(C2CC2)C(=O)N1C (some centres unmarked) [compound 298],IGF-1 levels,[1]; 1000 μg/kg dose,No changes in IGF-1 levels
same,effect on GH release,[1]; FIG. 9,lack of effect on GH release
same,effect on ghrelin-induced GH release,"[1]; dosed 10 min. prior to ghrelin, FIG. 12B",neither inhibits nor augments ghrelin-induced GH release
same,pulsatile GH release in comparison to vehicle controls,[1]; doses up to 1000 μg/kg i.v.,no significant difference in pulsatile GH release
same,opioid-delayed gastrointestinal transit,[2],effectively reversed in a dose-dependent manner
same,Ki,"[3]; Table 3B, binding activity at the human ghrelin receptor",10 to 100 nM
same,Ki,"[3]; Table 4, TFA salts unless otherwise noted",10 to 100 nM
same,binding to hGHS-R1a,"[3]; representative binding inhibition curve, FIG. 10","binds competitively, reversibly, and with high affinity"
